Holding throughout (format): functional
Assay [1] concerns Cavia porcellus. The assay can be described thus: Platelet-activating factor-antagonist activity was assessed in guinea pig bronchoconstriction assay through peroral administration at a dose of 50 mg/kg at 2 hr. The settings on record: Lung, route oral.
For assay [2], the system named is Cavia porcellus. Kind of assay: 50% inhibitory dose in a guinea pig bronchoconstriction assay of intravenous administration. Particulars: Lung, read-out: ID50 (the source's name).
The test system of assay [3] is Cavia porcellus. Kind of assay: 50%inhibitory dose in a guinea pig bronchoconstriction assay through peroral administration. The settings on record: Lung, po, read-out: ID50 (the source's name).
Assay [4] concerns Cavia porcellus. Kind of assay: 50% inhibitory dose in a guinea pig bronchoconstriction assay upon intravenous administration. Particulars: Lung, read-out: ID50 (the source's name).
Assay [5] relates to Cavia porcellus. Kind of assay: 50% inhibitory dose in a guinea pig bronchoconstriction assay through peroral administration. Particulars: Lung, po, read-out: ID50 (the source's name).
In assay [6] the test system is Cavia porcellus. The assay can be described thus: Platelet-activating factor-antagonist activity was assessed in guinea pig bronchoconstriction assay through peroral administration at a dose of 50 mg/kg at 6 hr. Particulars: Lung, route oral.

In the case of `COc1cccc(-c2ccc(C(=O)N[C@H](C)CCCc3cccnc3)cc2)c1`, in assay [1], the inhibition in vivo at 50 mg/kg was found to be 44%. For the same compound, the ED50 in assay [2] came out at 0.45 mg/kg.
`COc1cccc(-c2ccc(C(=O)NCCCCc3cccnc3)cc2)c1` showed an inhibition in vivo at 50 mg/kg in assay [1] of 55%. In addition, the ED50 came out at 50 mg/kg in assay [3] and 0.51 mg/kg in assay [4].
For the compound `CCCCc1cc(C(=O)N[C@H](C)CCCc2cccnc2)ccc1-c1ccc(OC)c(OC)c1`, the inhibition in vivo at 50 mg/kg in assay [1] is 91%; in assay [6], 55%. Further, the ED50 in assay [5] was found to be 25 mg/kg; in assay [2] it was 0.8 mg/kg.
In turn, `COc1ccc(-c2ccc(C(S)=N[C@H](C)CCCc3cccnc3)cc2)cc1OC` returned an inhibition in vivo at 50 mg/kg in assay [1] of 37%. In assay [2], the ED50 stood at 0.31 mg/kg.
Regarding `COc1ccc(-c2ccc(C(=O)NCCCCc3cccnc3)cc2Br)cc1OC`, the inhibition in vivo at 50 mg/kg in assay [1] amounted to 74%; in assay [6], 1%. Moreover, the ED50 amounted to 19 mg/kg in assay [5] and 0.4 mg/kg in assay [2].
For `COc1ccc(-c2ccc(C(=O)N[C@H](C)CCCc3cccnc3)cc2)cc1OC` the same measures were 88%, 29%, 30 mg/kg and 0.62 mg/kg.
Taken in the same sequence, the figures for `C=CCc1cc(C(=O)N[C@H](C)CCCc2cccnc2)ccc1-c1ccc(OC)c(OC)c1` were 93%, 26%, 24 mg/kg and 0.33 mg/kg.
For `COc1ccc(-c2ccc(C(=O)N[C@H](C)CCCc3cccnc3)cc2[N+](=O)[O-])cc1OC` the same measures were 89%, 36%, 22 mg/kg and 0.19 mg/kg.
In turn, `O=C(NCCCCc1cccnc1)c1ccc(-c2ccccc2)c(-c2ccccc2)c1` had an inhibition in vivo at 50 mg/kg in assay [1] of 33%. The ED50 in assay [2] is 3.2 mg/kg.
With `CCc1cc(C(=O)N[C@H](C)CCCc2cccnc2)ccc1-c1ccc(OC)c(OC)c1`, the inhibition in vivo at 50 mg/kg in assay [1] worked out at 89%; in assay [6], 23%. For the same compound, the ED50 in assay [5] was determined as 24 mg/kg; in assay [2], 0.34 mg/kg.
Taken in the same sequence, the figures for `COc1ccc(-c2ccc(C(=O)N[C@H](C)CCCc3cccnc3)cc2Br)cc1OC` were 97%, 59%, 14 mg/kg and 0.4 mg/kg.
On to `COc1ccc(-c2ccc(C(=O)NCCCCc3cccnc3)cc2OC)cc1OC`, for which the inhibition in vivo at 50 mg/kg worked out at 64% in assay [1] and 13% in assay [6]. The ED50 in assay [2] was found to be 0.52 mg/kg.
Consider `COc1ccc(-c2ccc(C(=O)NCCCCc3cccnc3)cc2[N+](=O)[O-])cc1OC`, for which the inhibition in vivo at 50 mg/kg is 62% in assay [1] and 4% in assay [6]. For the same compound, the ED50 in assay [5] was found to be 39 mg/kg; in assay [2] it was 0.76 mg/kg.

In general, inhibition in vivo refers to the share of the control response that was lost under treatment. Read a high inhibition in vivo as a response far below the control.
